Drawing on patent US20080070909A1, “ENANTIOMERICALLY PURE BETA AGONISTS, MANUFACTURING AND USE THEREOF” (priority 2006, published 2008), this text covers melting point for 1 compound.

As usually defined, the melting point is the temperature of the solid-liquid transition. As to `CCC1(CC)OC(=O)N(CCC(C)(C)NCC(O)c2ccc(O)c(NS(C)(=O)=O)c2)c2ccccc21` (stereo not shown) [Example 10, N-(5-{2-[3-(4,4-diethyl-2-oxo-4H-benzo[d][1,3]oxazin-1-yl)-1,1-dimethyl-propylamino]-1-hydroxy-ethyl}-2-hydroxy-phenyl)-methanesulphonamide], the melting point stood at 168 °C.
